From patent US9708628B2, “Cationic lipid having improved intracellular kinetics” (NOF CORPORATION, priority 2011, dated 2017)
Entries after “also recorded” stand apart in the source; their conditions may differ.

Each molecule was assayed on Factor VII (FVII) (assay: Knockdown effect of siRNA-encapsulated MEND (plasma FVII)). Conditions: 3 mg siRNA/kg, tail vein, 24 hr.
Type: in vivo, ICR mice
Experimental: A siRNA solution and protamine (CALBIOCHEM) solution were diluted with 10 mM HEPES buffer (pH 5.3) to 0.3 mg/mL and 0.2 mg/mL, respectively. While stirring 0.3 mg/mL siRNA solution (250 μL), 0.2 mg/mL protamine solution (250 μL) was added dropwise in small portions to prepared an electrostatic complex of siRNA and protamine (N/P ratio=1.0) as a core of the vector.
As a siRNA sequence for Factor VII (FVII), one described in Akinc et al, Molecular Therapy, 17(5) 872-879 (2009), which was free of chemical modification, was used.
A lipid solution in ethanol was mixed at a ratio of B-2:SOPE:Chol=5:3:2 for B-2 MEND (Example 1), at a ratio of B-2-4:DOPE:Chol=3:3:4 for B-2-4 MEND (Example 4), and at a ratio of B-2-5:POPE:Chol=3:4:3 for B-2-5 MEND (Example 5), to a total lipid of 660 nmol in a 5 mL tube. Further, PEG2000-DMG was added as PEG lipid in an amount equivalent to 3 mol % of the total lipid, and ethanol was added to a total volume of 400 μL each. While stirring the lipid solution by a vortex mixer, a solution (400 μL) of a nucleic acid electrostatic complex composed of siRNA/protamine prepared in [Experimental Example 27] was mixed, then 10 mM HEPES buffer (pH 5.3, 2.4 mL) was quickly added, and the mixture was vigorously stirred. The mixture was subjected to centrifugal ultrafiltration using Amicon Ultra-15 100K device (Millipore) at 1000 g, 10 min, 30° C. The mixture was sufficiently diluted with 10 mM HEPES buffer (pH 7.4), and again subjected to centrifugal ultrafiltration. This solution was adjusted to an object lipid concentration with 10 mM HEPES buffer (pH 7.4).
A MEND solution prepared by the method shown in [Experimental Example 28] was administered to 4-week-old male ICR mice at 3 mg siRNA/kg from the tail vein, and blood was collected 24 hr later. This blood sample was centrifuged at 1000 g, 10 min, 4° C., and the supernatant was recovered to obtain plasma. The amount of Factor VII (FVII) in the plasma was quantified by BIOPHEN FVII CHROMOGENIC ASSAY (HYPHEN BioMed).

Row | Compound | FVII expression level in plasma (knockdown effect)
1 | CC1=C(/C=C/C(C)=C/C=C/C(C)=C/C(=O)OCCCN(C)CCSSCCN(C)CCCOC(=O)/C=C(C)/C=C/C=C(C)/C=C/C2=C(C)CCCC2(C)C)C(C)(C)CCC1 [Example B-2-4] | decrease in the FVII expression level as compared to the non-treatment group
2 | Cc1c(C)c2c(c(C)c1OC(=O)CCC(=O)OCCCN(C)CCSSCCN(C)CCCOC(=O)CCC(=O)Oc1c(C)c(C)c3c(c1C)CCC(C)(CCCC(C)CCCC(C)CCCC(C)C)O3)CCC(C)(CCCC(C)CCCC(C)CCCC(C)C)O2 (stereo not shown) [Example B-2-5] | decrease in the FVII expression level as compared to the non-treatment group; also recorded: greatest knockdown effect
3 | CCCCCCCCCCCCCC(=O)OCCCN(C)CCSSCCN(C)CCCOC(=O)CCCCCCCCCCCCC [Example B-2] | decrease in the FVII expression level as compared to the non-treatment group

The molecules below were run on HT1080 cells (assay: Influence of endosome/lysosome acidification inhibition (bafilomycin A1) on gene expression activity). Conditions: 0.5 μM bafilomycin A1.
Type: cell-based
Experimental: Using B-2 (Example 1), B-2-1 (Comparative Example 1), and DODAP (Comparative Example 2) as cationic lipids, MENDs having a composition of cationic lipid:SOPE:Chol=5:3:2 were prepared by the method described in [Experimental Example 1] (2). For the preparation, PEG2000-DMG was used as PEG lipid, and MEND solutions corresponding to 0.55 mM of the lipid concentration were prepared. For cationic MEND, lipids having a composition of DOTAP (Comparative Example 3):DOPE:Chol:=3:4:3 were used, and the cationic MEND was prepared according to the method described in [Experimental Example 1] (3).
HT1080 cells were plated on a 24-well plate at 4×10^4 cell/500 μL/well 24 hr before, bafilomycin A1 was added at 0.5 μM 30 min before for a pre-treatment. Various MENDs were diluted with DMEM (FBS 10%+) to a pDNA amount of 0.4 μg/500 μL/well, bafilomycin A1 was added at 0.5 μM, and transfection was performed. 3 hr later, the MEND solution was removed, and DMEM (FBS 10%+) was added at 500 μL/well to change the medium. 24 hr later, the cells were washed with PBS(−) (500 μL), 1× Lysis buffer was added to each well by 75 μL, and the mixture was stood at −80° C. for 30 min or longer. The frozen 24-well plate was thawed on ice, the cells were detached with a cell scraper, and the total amount thereof was transferred into an Eppendorf tube and centrifuged under the conditions of 15000 rpm, 4° C., 5 min. The supernatant (50 μL) was recovered in a different Eppendorf tube, and used for luciferase assay and BCA assay. The gene expression was evaluated by the method described in [Example 4] (2).

Row | Compound | gene expression activity under bafilomycin A1
4 | CCCCCCCCCCCCCC(=O)OCCCN(C)CCCCCCN(C)CCCOC(=O)CCCCCCCCCCCCC [Example B-2-1, reference compound] | did not show a decrease in the gene expression activity
5 | CCCCCCCC/C=C\CCCCCCCC(=O)OCC(C[N+](C)(C)C)OC(=O)CCCCCCC/C=C\CCCCCCCC (stereo not shown) [DOTAP, reference compound] | did not show a decrease in the gene expression activity
6 | CCCCCCCCCCCCCC(=O)OCCCN(C)CCSSCCN(C)CCCOC(=O)CCCCCCCCCCCCC [Example B-2] | showed a decrease in the gene expression activity
7 | CCCCCCCC/C=C\CCCCCCCC(=O)OCC(CN(C)C)OC(=O)CCCCCCC/C=C\CCCCCCCC (stereo not shown) [DODAP, reference compound] | showed a decrease in the gene expression activity
